Data as given in ChEMBL document CHEMBL5729670, “Method for controlling hematophagous or sap-feeding arthropods” (2023).

Assay: thallium-flux assay: The thallium flux assay is an in vitro method of measuring conductance through a potassium ion channel. Potassium channels are also permeable to thallium ions. The modulation of a K+ channel will thus increase or decrease thallium ion flow through the channel and thus, alter the observed fluorescence of a thallium-specific indicator dye.Stably transfected T-Rex-HEK-293-AnKir1 cells were cultured overnight in 384-well plates in media containing DMEM, 10% dialyzed FBS, and 1 μg/mL tetracycline to induce channel expression. The next day the cell culture medium was replaced with a dye-loading solution containing assay buffer (Hanks Balanced Salt Solution with 20 mM HEPES, pH 7.3), 0.01% (w/v) Pluronic F-127 (Life Technologies, Carlsbad, Calif.), and 1.2 μM of the thallium-sensitive dye Thallos-AM (TEFlabs, Austin, Tex.). After 1 hr incubation at room temperature, the dye-loading solution was washed from the plates and replaced with 20 μL/well of assay buffer. The plates were transferred to a Hamamatsu Functional Drug Screening System 6000 (FDSS6000; Hamamatsu, Tokyo, Japan), where 20 μL/well of each of the test compounds in assay buffer was added and allowed to incubate with the cells for 20 min. […]

SMILES: O=C(Cn1nc(C(F)(F)F)c2c1CCCC2)N1CCc2ccccc2C1
- IC50: 15 µM
